Assay results from patent US7713969B2, “Compositions and methods for treatment of cancer” (ArQule, Inc., priority 2005, dated 2010).

Legend:
[1] = system: HT29; assay: Cell viability MTS assay; type: cell-based, human; details: Homo sapiens, HT-29, 72 hours with compound
How it was run: (§1)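 IC50 values reflect 50% loss of viable cells, measured as MTS absorbance at 490 nm. Compound was present for 72 hours, with a 4-hour MTS/PMS step ended by SDS.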

[2] = system: HCT-116; assay: Cell viability MTS assay; type: cell-based, human; details: Homo sapiens, HCT-116, 72 hours with compound
How it was run: as §1

[3] = system: PC-3; assay: Cell viability MTS assay; type: cell-based, human; details: Homo sapiens, PC-3, 72 hours with compound
How it was run: as §1

[4] = system: SK-MEL-28; assay: Cell viability MTS assay; type: cell-based, human; details: Homo sapiens, SK-MEL-28, 72 hours with compound
How it was run: as §1

[5] = system: SKOV-3; assay: Cell viability MTS assay; type: cell-based, human; details: Homo sapiens, SK-OV-3, 72 hours with compound
How it was run: as §1

[6] = system: MCF7; assay: Cell viability MTS assay; type: cell-based, human; details: Homo sapiens, MCF7, 72 hours with compound
How it was run: as §1

[7] = system: A549; assay: Cell viability MTS assay; type: cell-based, human; details: Homo sapiens, A549, 72 hours with compound
How it was run: as §1

[8] = system: MDA-MB-231; assay: Cell viability MTS assay; type: cell-based, human; details: Homo sapiens, MDA-MB-231, 72 hours with compound
How it was run: as §1

[9] = system: K562; assay: Cell viability MTS assay; type: cell-based, human; details: Homo sapiens, K562, 72 hours with compound
How it was run: as §1

[10] = system: DU-145; assay: Cell viability MTS assay; type: cell-based, human; details: Homo sapiens, DU-145, 72 hours with compound
How it was run: as §1

[11] = system: NCI-H82; assay: Cell viability MTS assay; type: cell-based, human; details: Homo sapiens, NCI-H82, 72 hours with compound
How it was run: as §1

[12] = system: NCI-H446; assay: Cell viability MTS assay; type: cell-based, human; details: Homo sapiens, NCI-H446, 72 hours with compound
How it was run: as §1

[13] = system: NCI-H69; assay: Cell viability MTS assay; type: cell-based, human; details: Homo sapiens, NCI-H69, 72 hours with compound
How it was run: as §1

[14] = molecular target: c-Met (Homo sapiens, UniProt P08581); assay: c-Met phosphorylation, Western blot (Example 80); type: cell-based; parameters: whole cell extracts were prepared; endogenous in cells; host or cells: MDA-MB-231; details: MDA-MB-231 cells, serum-deprived 16 hours, 100 ng/ml HGF/SF 10 minutes
Protocol: MDA-MB-231 cells were serum-deprived overnight (16 hours) in the absence or in the presence of the indicated concentrations of the separate enantiomers (+)-trans-3-(5,6-dihydro-4H-pyrrolo[3,2,1-ij]quinolin-1-yl)-4(1H-indol-3-yl)pyrrolidine-2,5-dione and (−)-trans-3-(5,6-dihydro-4H-pyrrolo[3,2,1-ij]quinolin-1-yl)-4(1H-indol-3-yl)pyrrolidine-2,5-dione. Cells were treated with 100 ng/ml recombinant human Hepatocyte Growth Factor/Scatter Factor (HGF/SF) (R&D Systems #294-HG) for 10 minutes. Whole cell extracts were prepared in lysis buffer (20 mM Trwas-HC1 pH 7.5, 150 mM NaCl, 1 mM Na2EDTA, 1 mM EGTA, 1% Triton X-100, 2.5 mM sodium pyrophosphate, 1 mM beta-glycerophosphate, 1 mM Na3VO4, 1 μg/ml leupeptin, 1 mM phenylmethylsulfonyl fluoride) and sonicated. Protein concentration was measured by Bradford assay using the BioRad reagent (BioRad, Hercules, Calif.), according to the manufacturer's directions. Samples (50 μg of protein) were resolved by 8% SDS-PAGE under reducing conditions, and transferred onto a PVDF membrane (BioRad). […] Proteins were detected by incubation overnight at 4° C. in TBS-T with 5% milk and either a polyclonal antibody against phosphorylated c-Met (#3121), phosphorylated Erk1/2 (#9101), total Erk1/2 protein (#9102) (Cell Signaling Technology); or a monoclonal antibody against […] (A-5441) (Sigma), which was used as a control for total protein loading. […]

Chain of c-Met (P08581 25-1390): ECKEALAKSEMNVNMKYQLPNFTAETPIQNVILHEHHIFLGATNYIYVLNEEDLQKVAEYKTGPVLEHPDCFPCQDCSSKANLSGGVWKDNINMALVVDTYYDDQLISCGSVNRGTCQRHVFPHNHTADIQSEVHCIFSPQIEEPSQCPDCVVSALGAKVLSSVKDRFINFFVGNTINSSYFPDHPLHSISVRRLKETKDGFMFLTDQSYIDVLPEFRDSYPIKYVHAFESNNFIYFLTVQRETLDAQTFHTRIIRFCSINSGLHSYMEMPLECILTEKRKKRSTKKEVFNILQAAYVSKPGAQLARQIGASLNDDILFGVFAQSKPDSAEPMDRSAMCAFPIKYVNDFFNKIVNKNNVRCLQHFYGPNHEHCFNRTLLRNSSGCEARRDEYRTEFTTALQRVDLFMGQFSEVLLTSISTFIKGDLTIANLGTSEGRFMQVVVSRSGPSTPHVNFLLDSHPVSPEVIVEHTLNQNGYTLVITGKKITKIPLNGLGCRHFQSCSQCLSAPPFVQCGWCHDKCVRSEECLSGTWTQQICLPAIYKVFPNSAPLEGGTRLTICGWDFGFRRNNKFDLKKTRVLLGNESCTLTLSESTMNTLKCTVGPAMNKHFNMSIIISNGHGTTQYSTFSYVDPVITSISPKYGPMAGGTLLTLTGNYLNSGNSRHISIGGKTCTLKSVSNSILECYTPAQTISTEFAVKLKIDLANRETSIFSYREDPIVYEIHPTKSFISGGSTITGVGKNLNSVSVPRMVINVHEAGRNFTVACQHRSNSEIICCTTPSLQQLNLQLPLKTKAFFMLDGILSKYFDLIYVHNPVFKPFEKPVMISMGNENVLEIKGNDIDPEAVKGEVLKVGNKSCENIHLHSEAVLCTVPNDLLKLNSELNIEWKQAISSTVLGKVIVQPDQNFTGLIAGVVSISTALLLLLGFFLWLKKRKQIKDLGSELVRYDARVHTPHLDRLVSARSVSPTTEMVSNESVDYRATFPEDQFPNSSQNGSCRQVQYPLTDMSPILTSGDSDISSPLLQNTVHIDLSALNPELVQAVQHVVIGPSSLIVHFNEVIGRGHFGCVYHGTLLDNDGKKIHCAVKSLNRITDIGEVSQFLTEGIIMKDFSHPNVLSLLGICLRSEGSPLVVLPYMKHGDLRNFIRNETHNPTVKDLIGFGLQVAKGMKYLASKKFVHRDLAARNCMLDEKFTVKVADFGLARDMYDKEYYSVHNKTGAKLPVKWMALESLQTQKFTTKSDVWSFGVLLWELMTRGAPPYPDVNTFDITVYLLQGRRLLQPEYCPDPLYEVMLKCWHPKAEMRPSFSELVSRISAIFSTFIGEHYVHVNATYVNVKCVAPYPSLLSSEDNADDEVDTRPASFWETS

Compound | IC50 [1] [nM] | IC50 [2] [nM] | IC50 [3] [nM] | IC50 [4] [nM] | IC50 [5] [nM] | IC50 [6] [nM] | IC50 [7] [nM] | IC50 [8] [nM] | IC50 [9] [nM] | IC50 [10] [nM] | IC50 [11] [nM] | IC50 [12] [nM] | IC50 [13] [nM] | concentration that inhibits basal and HGF-induced autophosphorylation of c-Met [14]
O=C1NC(=O)[C@@H](c2cn3c4c(cccc24)CCC3)[C@@H]1c1c[nH]c2ccccc12 (racemic) [(±)-Trans-3-(5,6-dihydro-4H-pyrrolo[3,2,1-ij]quinolin-1-yl)-4(1H-indol-3-yl)pyrrolidine-2,5-dione] | 4550 | 1820 | 4950 | 13000 | 939 | > 100000 | 10700 | 3340 | 424 | 9610 |  |  |  | 
O=C1NC(=O)C(c2cn3c4c(cccc24)CCC3)C1c1c[nH]c2ccccc12 (single isomer, unassigned; (-)) | 1950 | 812 | 1280 | 8680 | 444 | > 100000 | 5800 | 2190 | 294 | 4000 | 828 | 581 | 1040 | at least 500 nM
